Entries after “also recorded” stand apart in the source; their conditions may differ.
Test system: IR condensates
Assay: tc-PALM of IR cluster/condensate dynamics in HepG2 cells expressing IR-Dendra2
Assay type: cell-based, human
Method: Widefield Live-cell super-resolution imaging was performed in a photo-activation localization microscopy (PALM) approach using a Nikon Eclipse Ti microscope with a 100× oil immersion objective. The 405 nm and 561 nm laser beams were combined in an external platform with customized power densities to image Dendra2-tagged molecules as previously reported (56). Cells were maintained at 37° C. in a temperature-controlled platform during imaging, and the CO2 level was maintained at 5% by Leibovitz's L-15 Medium with no phenol red (ThermoFisher #21083027). In each imaging cycle, a 2400-frame video stream including a (256 pixel)2 region of interest (ROI) was recorded in 20 Hz acquisition rate with the EM-gain setting as 1000 on an Andor iXon Ultra 897 EMCCD. Each pixel conjugates with a (160 nm)2 area on the sample side. After PALM imaging, the Hoechst-stained nuclei of the same ROI were imaged with stronger 405 nm excitation through DAPI filter.
Detection localization. For each frame of a raw image, Gaussian particles were identified by pixelwise test of hypotheses, whose peak positions were individually fitted at subpixel resolution by maximum-likelihood regression with Gauss-Newton method (91). An additional deflation loop was performed to avoid missing dimmer particles when they were overshadowed by neighboring brighter ones. This multi-particle detection localization procedure has been integrated in a published, open-source MATLAB software called MTT (91).
Spatial clustering. DBSCAN and “manual selection” hybridized approach was applied to group spatially clustered detections via the qSR software (92). Firstly, DBSCAN was performed to generalize a proposal map of spatially clustered detections. Given that IR condensates can be tiny and transient, a “loose” parameter setting was used when performing the DBSCAN (length-scale=120 nm, N_min=4). This parameter combination was determined by comparing the rendered super-resolved reconstructions with the color-coded cluster maps until the clustering results visually make sense for most ROIs. Secondly, individual clusters were manually selected based on the clustering proposal map from last step. Some custom MATLAB code was used to reconstruct the IR distribution of each ROI superposed with the corresponding nuclei image, which was further cross-compared with the corresponding cluster map to determine which region each cluster belongs to (i.e., plasma-membrane, cytoplasm, or nucleus).
Temporal clustering. For each spatial cluster, time-correlated PALM (tc-PALM) analysis was performed along the time axis to extract the truly colocalized, time-correlated multimolecule bursting events (11, 13-14). The lifetime of a burst is simply defined as the timespan from the first to the last detections. More details about the quantitative validations and statistics of tc-PALM analysis can be found in NOTES and FIG. 11.
Widefield, live-cell, super-resolution imaging was performed in a photo-activation localization microscopy (PALM) approach using a Nikon Eclipse Ti microscope with a 100× oil immersion objective. The 405 nm and 561 nm laser beams were combined in an external platform with customized power densities to image Dendra2-tagged molecules as previously reported^24. Cells were cultured on imaging dishes (MatTek, P35G-1.5-20-C) and then imaged while maintaining both the temperature at 37° C. with a temperature-controlled platform and the level of CO2 at 5% with Leibovitz's L-15 Medium with no phenol red (Thermo Fisher, 21083027). During each imaging cycle, a 2400-frame video stream including a (256 pixel)^2 region of interest (ROI) was recorded in 20 Hz acquisition rate with the EM-gain setting as 1000 on an Andor iXon Ultra 897 EMCCD. Each pixel conjugates with a (160 nm)^2 area on the sample side. After PALM imaging, the Hoechst-stained nuclei of the same ROI were imaged using a stronger 405 nm excitation through DAPI filter. […] Following a 5-minute wait, the cells were imaged for 15-20 minutes.

[1] = insulin resistant (3 nM insulin) versus sensitive (0.1 nM) cells
[2] = insulin sensitive cells, 3 nM insulin 5 min

**Q.** Which results are given for “insulin: insulin (Sigma Aldrich, I9278-5ML) used for acute stimulation and chronic physiological or pathological exposure”?
**A.** average number of IR-Dendra2 detections per cluster (entire cells, insulin-stimulated (3 nM, 5 min), 22 (range 4-609) in unstimulated cells): 27 (range 4-539); increase of percentage of long-lived IR clusters, cytoplasm [1]: 1.4 fold; increase of percentage of long-lived IR clusters, nucleus [1]: 3.6 fold; number of IR clusters in the cytoplasm and nucleus [2]: produced an increase; also recorded: resulted in an increase; number of IR molecules / IR detections in clusters [2]: an increase in the number of IR molecules in these clusters; also recorded: an increase in the number of IR detections in clusters; average number of IR molecules per cluster, nucleus (insulin stimulated cells (3 nM, 5 min), 9 (2-46) in unstimulated cells): 14 (2-283); average number of IR molecules per cluster, cytoplasm (insulin stimulated cells (3 nM, 5 min), 14 (2-264) in unstimulated cells): 19 (2-295); percentage of long-lived IR condensates in the plasma membrane, cytoplasm and nucleus (insulin-resistant (3 nM insulin) versus sensitive cells (FIG. 18B)): also increased; average lifetime of short-lived IR clusters, nucleus (pathologic insulin (3 nM), insulin resistant cells, 5.9 s in sensitive cells (FIG. 4B)): 16 s; average lifetime of short-lived IR clusters, cytoplasm (pathologic insulin (3 nM), insulin resistant cells, 9.8 s in sensitive cells (FIG. 4B)): 13.2 s; average lifetime of short-lived IR condensates, plasma membrane (pathologic insulin (3 nM), insulin-resistant cells, 6.8 s in sensitive cells (FIG. 18B)): 11.8 s; average lifetime of short-lived IR condensates, nucleus (pathologic insulin (3 nM), insulin-resistant cells, 7.0 s in sensitive cells (FIG. 18B)): 12.9 s; average lifetime of short-lived IR condensates, cytoplasm (pathologic insulin (3 nM), insulin-resistant cells, 10.0 s in sensitive cells (FIG. 18B)): 15.8 s

**Q.** How did the “IR condensate lifetimes in the plasma membrane, cytoplasm and nucleus” value (insulin-resistant cells, 12.5 μM metformin, after insulin washout (FIG. 18B)) turn out when CN(C)C(=N)N=C(N)N [metformin, reference compound] was run?
**A.** rescued condensate lifetimes in the plasma membrane, cytoplasm and nucleus to times that were similar to those in insulin-sensitive cells

**Q.** And the “IR condensate lifetime in insulin-sensitive cells” value (insulin-sensitive HepG2 IR-Dendra2 cells, 12.5 μM metformin for 1 day (FIG. 37))?
**A.** did not decrease IR condensate lifetime; also recorded: does not decrease IR condensate lifetime

**Q.** What about the “IR cluster lifetimes in the cytoplasm and nucleus” value (metformin-treated insulin resistant cells (FIG. 5C), no acute insulin stimulation) of the same compound?
**A.** reduced cluster lifetimes in the cytoplasm and nucleus to times that were similar to those in insulin sensitive cells

**Q.** And the “IR cluster lifetimes in the plasma membrane” value (metformin-treated insulin resistant cells, 12.5 M metformin as printed (FIG. 5C), no acute insulin stimulation)?
**A.** little effect

**Q.** What about the “frequency of nuclear IR clusters with 0-25 s lifetimes” value (metformin-treated resistant cells vs resistant cells (FIG. 5C)) of the same compound?
**A.** increased

**Q.** And the “frequency of plasma membrane and nuclear IR condensates with 0-13 s lifetimes” value (metformin-treated resistant cells vs resistant cells (FIG. 18B))?
**A.** increased

**Q.** And the “IR clusters in the cytoplasm with a lifetime of 0-25 s” value (metformin-treated resistant cells, ~40% in insulin resistant cells (FIG. 5C))?
**A.** ~60%

**Q.** And the “IR condensates in the cytoplasm with a lifetime of 0-13 s” value (metformin-treated resistant cells, ~40% in insulin-resistant cells (FIG. 18B))?
**A.** ~60%

**Q.** Which “IR dynamics in condensates” value (HepG2 IR-Dendra2 cells, pathological TNFα or high nutrients (FIGS. 36A-36B)) does the source give for TNFα here?
**A.** decreased IR dynamics in condensates
